# Measured values as given in US11541029B2, “High penetration compositions and their applications” (Techfields Pharma Co., Ltd., priority 2008, dated 2023).
# Key:
# [1] = Amount of salicylic acid in rat plasma and brain, 0.3 mmol/kg
# Excerpt: 20 male rats were divided into 4 groups (n=5). 0.3 mmol/kg of diethylaminoethyl acetylsalicylate.HCl salt was administrated into rats intramuscularly (20% in 70% ethanol) or transdermally (10% in 70% ethanol, on the shaved back of rat, 10 cm^2) and 0.3 mmol/kg of aspirin was administrated into rats intramuscularly (20% in 70% ethanol) or transdermally (10% in 70% ethanol, on the shaved back of rat, 10 cm^2). […] The plasma or brain tissue (the whole brain was washed with pH 7.4 buffer for 3 times) was homogenized immediately in 3-5 ml of methanol, using a tissue tearor at 30,000 rpm (about 2 min.).
# [2] = tested on: type 2 diabetes rat models [SLAC/GK(Goto and Kakisaki)]; assay: Hypoglycemic effects of aspirin and its HPC in GK rats, once per day for 6 weeks; assay type: in vivo; details: for Blood Glucose Levels at day 1 / Blood Glucose Levels at day 42: no fasting, n = 5;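 for Blood Glucose Levels at day 42: blood glucose in mg/dL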
# Experimental: The blood glucose levels were measured three times every week (no fasting) from the third week to the sixth week.
# [3] = tested on: GK rats (SLAC/GK, type 2 diabetes); assay: Anti-diabetes (type II) activity of HPCs of NSAIAs in GK rats; assay type: in vivo; details: 30 mg/kg transdermally once per day, no fasting
# How it was run: (§1)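 GK (type 2 diabetic) and normal SD rats, 14-16 weeks old, n=7, received 30 mg/kg test compound in 25% ethanol transdermally on a 6 cm^2 shaved back area once daily at 8 am for 6 weeks. Non-fasting blood glucose was measured at 4:30 pm every 3 days from week 3 to week 6.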
# [4] = tested on: normal SD rats (SLAC/SD); assay: Blood glucose in normal SD rats treated with HPCs of NSAIAs; assay type: in vivo; details: 30 mg/kg transdermally once per day, no fasting
# How it was run: as §1
# [5] = tested on: carotid artery thrombosis; assay: Thrombosis/stroke induced by electrical stimulation of carotid artery; assay type: in vivo, rats (Spragu Dawley)
# Experimental: Thrombosis was induced by electrical stimulation (1 mA for 3 minutes) of the carotid artery in rats by using a thrombosis formation instrument (YLS-14A, Shandong Academy of Medical Sciences, Shandong, China). […] In group B, 100 mg/kg of diethylaminoethyl acetylsalicylate.HCl salt (10% in water) was applied to the shaved back skin of the rats (˜9 cm^2, fur was cut off) 2 hour before the operation and 1 hour after the operation, then 50 mg/kg of the HPC was applied to the back of the rats twice per day. In group C, 50 mg/kg of diethylaminoethyl acetylsalicylate.HCl was applied to the back of the rats twice per day starting from 24 hours after the operation. The recovery of motor functions of rats was evaluated every day.
# [6] = tested on: fungal diseases and insects of peach trees; assay: Antiviral, anti-fungus, anti-insect activity in peach trees; assay type: in vivo
# Experimental: 240 Peach trees were divided into 4 groups. All field operations concerning land preparation and the uses of fertilizers were same for all groups. Group A (n=60) was control group with no chemical treatments. Group B (n=60) was normal fungicides and insecticides-treated group. Group C (n=60) was treated with N,N-diethylaminoethyl acetylsalicylate plus some insecticides. Group D (n=60) was N,N-diethylaminoethyl acetylsalicylate and N,N-diethylaminoethyl jasmonate.citric acid treated group. In group A, Peach Leaf Curl, Peach Scab, Brown Rot, Black Knot and other fungal diseases were found and different scale insects, Shothole Borer, Peach tree Borer, Lesser Peachtree Borer, fruit Moth and other diseases and insects were found. No any good (edible) fruits were harvested. In group B, 100 g of ferbam [iron tris(dimethyldithiocarbamate)] […] Group C was N,N-diethylaminoethyl acetylsalicylate-treated group. 50 g of N,N-diethylaminoethyl acetylsalicylate in 50 kg of water was applied to the group C Peach trees on November 15, March 1, March 20, and June 20, 50 g of N,N-diethylaminoethyl acetylsalicylate, 125 g of Malathion 50% EC, 125 g of 1-naphthyl methylcarbamate 50% WP and 60 g of thiophanate-methyl 50% WP in 50 kg of water was applied to the group C peach trees on April 1, April 20, May 10, and May 30. Yield 3000 kg of good (edible) peaches. […]
# [7] = group B: 100 mg/kg 2 hour before and 1 hour after operation, then 50 mg/kg twice per day
# [8] = group C: 50 mg/kg twice per day starting 24 hours after the operation
compound,measurement,setting,value
"CCN(CC)CCOC(=O)c1ccccc1OC(C)=O.Cl [P-1, diethylaminoethyl acetylsalicylate.HCl salt]",salicylic acid in Plasma (1 hr),[1]; intramuscularly,378 ± 34 nmol/mL
same,salicylic acid in Plasma (8 hr),[1]; intramuscularly,123 ± 25 nmol/mL
same,salicylic acid in Plasma (18 hr),[1]; intramuscularly,0.9 ± 0.2 nmol/mL
same,salicylic acid in Plasma (1 hr),[1]; transdermally,158 ± 21 nmol/mL
same,salicylic acid in Plasma (8 hr),[1]; transdermally,103 ± 28 nmol/mL
same,salicylic acid in Plasma (18 hr),[1]; transdermally,1.1 ± 0.2 nmol/mL
same,Blood Glucose Levels at day 1,"[2]; 50 mg/kg, orally",215.6 ± 19.5 mg/dL
same,Blood Glucose Levels at day 42,"[2]; 50 mg/kg, orally",172.4 ± 21.5 mg/dL
same,Blood Glucose Levels at day 1,"[2]; 50 mg/kg, transdermally",217.3 ± 19.7 mg/dL
same,Blood Glucose Levels at day 42,"[2]; 50 mg/kg, transdermally",135.4 ± 19.8 mg/dL
same,Blood Glucose Levels at day 1,"[2]; 100 mg/kg, orally",216.4 ± 18.5 mg/dL
same,Blood Glucose Levels at day 42,"[2]; 100 mg/kg, orally",133.4 ± 23.1 mg/dL
same,Blood Glucose Levels at day 1,"[2]; 100 mg/kg, transdermally",219.8 ± 20.4 mg/dL
same,Blood Glucose Levels at day 42,"[2]; 100 mg/kg, transdermally",115.4 ± 16.7 mg/dL
same,Blood Glucose Levels at day 1,"[2]; 200 mg/kg, orally",214.4 ± 26.5 mg/dL
same,Blood Glucose Levels at day 42,"[2]; 200 mg/kg, orally",125.4 ± 26.8 mg/dL
same,Blood Glucose Levels at day 1,"[2]; 200 mg/kg, transdermally",219.4 ± 23.5 mg/dL
same,Blood Glucose Levels at day 42,"[2]; 200 mg/kg, transdermally",111.4 ± 23.2 mg/dL
same,Blood Glucose Levels at day 1,"[2]; 300 mg/kg, orally",217.4 ± 25.5 mg/dL
same,Blood Glucose Levels at day 42,"[2]; 300 mg/kg, orally",115.4 ± 18.2 mg/dL
same,"anti-diabetic effect, times stronger than that of aspirin",[2]; oral administration,more than 5 times
same,"blood glucose, Average (Week 2-5)",[3],6.4 ± 2.4 mmol/L
same,"blood glucose, Day 1",[3],17.1 ± 2.8 mmol/L
same,"blood glucose, Average (Week 2-5)",[4],5.7 ± 1.3 mmol/L
same,"blood glucose, Day 1",[4],5.8 ± 1.5 mmol/L
same,Stroke-free rats (2 hours),[5]; [7],8/10
same,Stroke-free rats (1 day),[5]; [7],9/10
same,Stroke-free rats (7 days),[5]; [7],10/10
same,Stroke-free rats (3 hrs),[5]; [8],0/10
same,Stroke-free rats (2 day),[5]; [8],4/10
same,Stroke-free rats (7 day),[5]; [8],9/10
same,Stroke-free rats (14 days),[5]; [8],10/10
same,Weight Loss (3 days),[5]; [8],−13 +/− 7%
same,Weight Loss (7 days),[5]; [8],−7 +/− 4%
same,Weight Loss (14 days),[5]; [8],−4 +/− 2%
same,bleeding problem,[5]; post-stroke treatment,without bleeding problem
same,Yield of good (edible) peaches,"[6]; 60 trees per group, some insecticides/fungicides co-applied",3000 kg
same,harvest dates earlier,[6]; groups C and D,1 week
